{"source": "paper PMC5814316", "about": "(Experimental Animals, 2017)", "key": {"[1]": {"settings": "suffering and junctival irritation of the operator; cited from earlier work"}, "CYP3A4 [2]": {"biological_target": "T1, CYP3A4 (Homo sapiens, UniProt P08684)", "T1 sequence (P08684 whole entry)": "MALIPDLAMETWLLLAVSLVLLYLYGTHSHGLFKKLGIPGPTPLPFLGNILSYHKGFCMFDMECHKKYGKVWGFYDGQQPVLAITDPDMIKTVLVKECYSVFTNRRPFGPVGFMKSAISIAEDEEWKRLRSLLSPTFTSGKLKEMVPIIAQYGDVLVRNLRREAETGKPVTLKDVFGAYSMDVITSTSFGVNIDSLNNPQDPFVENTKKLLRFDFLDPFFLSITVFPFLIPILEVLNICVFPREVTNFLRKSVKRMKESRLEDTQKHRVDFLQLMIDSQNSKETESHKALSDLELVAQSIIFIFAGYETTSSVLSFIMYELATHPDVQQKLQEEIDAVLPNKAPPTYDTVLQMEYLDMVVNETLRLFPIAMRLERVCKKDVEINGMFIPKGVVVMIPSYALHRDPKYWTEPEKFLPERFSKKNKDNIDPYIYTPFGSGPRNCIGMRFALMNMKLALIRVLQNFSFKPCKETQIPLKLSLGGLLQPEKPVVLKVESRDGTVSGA", "experiment": "in vitro", "settings": "human liver microsomes"}, "[3]": {"experiment": "Stability of DECP, CP and KTZ in rat plasma under storage conditions", "type": "physicochemical", "settings": "for Short term stability, Measured / Short term stability, RE: 25 °C for 3 h; for stability throughout the whole manipulation and storage processes: short term, long term, freeze-thaw; for Long term stability, Measured / Long term stability, RE: −80 °C for 3 months; for Three freeze−thaw cycles, Measured / Three freeze−thaw cycles, RE: −80°C to 25°C"}, "CYP2B6": {"system": "CYP2B6", "settings": "C-4 oxidation of CP; cited from earlier work"}, "CYP2C9": {"system": "CYP2C9", "settings": "C-4 oxidation of CP; cited from earlier work"}, "[4]": {"experiment": "Pharmacokinetic study in rats: CP and DECP with and without KTZ, KTZ alone", "type": "in vivo", "settings": "rat, plasma; for AUC(0-inf): AUC0→∞; for MRT inf: MRT0–∞"}, "CYP3A4 [5]": {"system": "CYP3A4", "settings": "C-4 oxidation of CP; cited from earlier work"}, "CYP3A4 [6]": {"system": "CYP3A4", "settings": "cited from earlier work"}, "rats": {"system": "rats", "experiment": "Toxicity observation in rats after single dose KTZ", "type": "in vivo, rat"}, "CYP3A4 [7]": {"biological_target": "T1, CYP3A4", "experiment": "KTZ inhibition of CP conversion to DECP in HLM", "settings": "human liver microsomes, probe CP (cyclophosphamide)"}, "[8]": {"settings": "iv, 10 mg/kg, Group 1 (0 mg/kg KTZ), CP 10 mg/kg i.v., rats"}, "[9]": {"settings": "iv, 10 mg/kg, Group 2 (10 mg/kg KTZ oral, 50 min before), CP 10 mg/kg i.v., rats"}, "[10]": {"settings": "iv, 10 mg/kg, Group 3 (20 mg/kg KTZ oral, 50 min before), CP 10 mg/kg i.v., rats"}, "[11]": {"settings": "iv, 10 mg/kg, Group 4 (40 mg/kg KTZ oral, 50 min before), CP 10 mg/kg i.v., rats"}}}
{"smiles": "O=CCCl", "note": "[CAA, chloroacetaldehyde]", "values": [{"measurement": "exposure level at which dangerous", "setting": "[1]", "value": 45, "unit": "ppm"}]}
{"smiles": "O=P1(N(CCCl)CCCl)NCCCO1", "note": "(stereo not drawn) [CP, Cyclophosphamide]", "values": [{"measurement": "Km", "setting": "CYP3A4 [2]", "value": 160, "unit": "µM"}, {"measurement": "Short term stability, Measured", "setting": "[3]; nominal 20 ng/ml", "value": "20.57 ± 0.81", "unit": "ng/mL"}, {"measurement": "Short term stability, RE", "setting": "[3]; nominal 20 ng/ml", "value": 2.85, "unit": "%"}, {"measurement": "Short term stability, Measured", "setting": "[3]; nominal 80 ng/ml", "value": "84.49 ± 2.05", "unit": "ng/mL"}, {"measurement": "Short term stability, RE", "setting": "[3]; nominal 80 ng/ml", "value": 5.61, "unit": "%"}, {"measurement": "Short term stability, Measured", "setting": "[3]; nominal 500 ng/ml", "value": "525.40 ± 73.09", "unit": "ng/mL"}, {"measurement": "Short term stability, RE", "setting": "[3]; nominal 500 ng/ml", "value": 5.08, "unit": "%"}, {"measurement": "stability throughout the whole manipulation and storage processes", "setting": "[3]", "value": "stable"}, {"measurement": "Long term stability, Measured", "setting": "[3]; nominal 20 ng/ml", "value": "18.79 ± 0.42", "unit": "ng/mL"}, {"measurement": "Long term stability, RE", "setting": "[3]; nominal 20 ng/ml", "value": "−6.05", "unit": "%"}, {"measurement": "Long term stability, Measured", "setting": "[3]; nominal 80 ng/ml", "value": "81.16 ± 2.40", "unit": "ng/mL"}, {"measurement": "Long term stability, RE", "setting": "[3]; nominal 80 ng/ml", "value": 1.45, "unit": "%"}, {"measurement": "Long term stability, Measured", "setting": "[3]; nominal 500 ng/ml", "value": "509.89 ± 68.17", "unit": "ng/mL"}, {"measurement": "Long term stability, RE", "setting": "[3]; nominal 500 ng/ml", "value": 1.98, "unit": "%"}, {"measurement": "Three freeze−thaw cycles, Measured", "setting": "[3]; nominal 20 ng/ml", "value": "18.68 ± 0.20", "unit": "ng/mL"}, {"measurement": "Three freeze−thaw cycles, RE", "setting": "[3]; nominal 20 ng/ml", "value": "−6.60", "unit": "%"}, {"measurement": "Three freeze−thaw cycles, Measured", "setting": "[3]; nominal 80 ng/ml", "value": "78.39 ± 1.43", "unit": "ng/mL"}, {"measurement": "Three freeze−thaw cycles, RE", "setting": "[3]; nominal 80 ng/ml", "value": "−2.01", "unit": "%"}, {"measurement": "Three freeze−thaw cycles, Measured", "setting": "[3]; nominal 500 ng/ml", "value": "490.26 ± 78.18", "unit": "ng/mL"}, {"measurement": "Three freeze−thaw cycles, RE", "setting": "[3]; nominal 500 ng/ml", "value": "−1.95", "unit": "%"}, {"measurement": "share of the total CP bioactivation", "setting": "CYP2B6", "value": "approximately 45%"}, {"measurement": "share of the total CP bioactivation", "setting": "CYP2C9", "value": 12, "unit": "%"}, {"measurement": "AUC(0-t)", "setting": "[4]; iv, 10 mg/kg, AUC0→t, Group 2 (10 mg/kg KTZ oral, 50 min before), CP 10 mg/kg i.v., rats", "value": 21100, "unit": "ng·h/mL"}, {"measurement": "AUC(0-t)", "setting": "[4]; iv, 10 mg/kg, AUC0→t, Group 3 (20 mg/kg KTZ oral, 50 min before), CP 10 mg/kg i.v., rats", "value": 28700, "unit": "ng·h/mL"}, {"measurement": "AUC(0-t)", "setting": "[4]; iv, 10 mg/kg, AUC0→t, Group 4 (40 mg/kg KTZ oral, 50 min before), CP 10 mg/kg i.v., rats", "value": 38200, "unit": "ng·h/mL"}, {"measurement": "AUC(0-inf)", "setting": "[4]; [8]", "value": 15500, "unit": "ng·h/mL"}, {"measurement": "AUC(0-inf)", "setting": "[4]; [9]", "value": 21900, "unit": "ng·h/mL"}, {"measurement": "AUC(0-inf)", "setting": "[4]; [10]", "value": 29600, "unit": "ng·h/mL"}, {"measurement": "AUC(0-inf)", "setting": "[4]; [11]", "value": 39000, "unit": "ng·h/mL"}, {"measurement": "Cmax", "setting": "[4]; iv, 10 mg/kg, Cmax, Group 1 (0 mg/kg KTZ), CP 10 mg/kg i.v., rats", "value": 9420, "unit": "ng/mL"}, {"measurement": "Cmax", "setting": "[4]; iv, 10 mg/kg, Cmax, Group 2 (10 mg/kg KTZ oral, 50 min before), CP 10 mg/kg i.v., rats", "value": 10400, "unit": "ng/mL"}, {"measurement": "Cmax", "setting": "[4]; iv, 10 mg/kg, Cmax, Group 3 (20 mg/kg KTZ oral, 50 min before), CP 10 mg/kg i.v., rats", "value": 11400, "unit": "ng/mL"}, {"measurement": "Cmax", "setting": "[4]; iv, 10 mg/kg, Cmax, Group 4 (40 mg/kg KTZ oral, 50 min before), CP 10 mg/kg i.v., rats", "value": 9600, "unit": "ng/mL"}, {"measurement": "MRT last", "setting": "[4]; iv, 10 mg/kg, MRT0–t, Group 1 (0 mg/kg KTZ), CP 10 mg/kg i.v., rats", "value": "1.7 ± 0.167", "unit": "h"}, {"measurement": "MRT last", "setting": "[4]; iv, 10 mg/kg, MRT0–t, Group 2 (10 mg/kg KTZ oral, 50 min before), CP 10 mg/kg i.v., rats", "value": "1.72 ± 0.357", "unit": "h"}, {"measurement": "MRT last", "setting": "[4]; iv, 10 mg/kg, MRT0–t, Group 3 (20 mg/kg KTZ oral, 50 min before), CP 10 mg/kg i.v., rats", "value": "2.04 ± 0.293", "unit": "h"}, {"measurement": "MRT last", "setting": "[4]; iv, 10 mg/kg, MRT0–t, Group 4 (40 mg/kg KTZ oral, 50 min before), CP 10 mg/kg i.v., rats", "value": "2.65 ± 0.482", "unit": "h"}, {"measurement": "MRT inf", "setting": "[4]; [8]", "value": "1.9 ± 0.345", "unit": "h"}, {"measurement": "MRT inf", "setting": "[4]; [9]", "value": "1.86 ± 0.6", "unit": "h"}, {"measurement": "MRT inf", "setting": "[4]; [10]", "value": "2.12 ± 0.361", "unit": "h"}, {"measurement": "MRT inf", "setting": "[4]; [11]", "value": "2.67 ± 0.505", "unit": "h"}, {"measurement": "Tmax", "setting": "[4]; iv, 10 mg/kg, Tmax, Group 1 (0 mg/kg KTZ), CP 10 mg/kg i.v., rats", "value": "0.194 ± 0.086", "unit": "h"}, {"measurement": "Tmax", "setting": "[4]; iv, 10 mg/kg, Tmax, Group 2 (10 mg/kg KTZ oral, 50 min before), CP 10 mg/kg i.v., rats", "value": "0.194 ± 0.086", "unit": "h"}, {"measurement": "Tmax", "setting": "[4]; iv, 10 mg/kg, Tmax, Group 3 (20 mg/kg KTZ oral, 50 min before), CP 10 mg/kg i.v., rats", "value": "0.139 ± 0.086", "unit": "h"}, {"measurement": "Tmax", "setting": "[4]; iv, 10 mg/kg, Tmax, Group 4 (40 mg/kg KTZ oral, 50 min before), CP 10 mg/kg i.v., rats", "value": "0.347 ± 0.327", "unit": "h"}, {"measurement": "share of the total CP bioactivation", "setting": "CYP3A4 [5]", "value": 25, "unit": "%"}, {"measurement": "part of CP dechloroethylated to DECP and CAA", "setting": "CYP3A4 [6]", "value": "about 10%"}]}
{"smiles": "CC(=O)N1CCN(c2ccc(OCC3COC(Cn4ccnc4)(c4ccc(Cl)cc4Cl)O3)cc2)CC1", "note": "(stereo not drawn) [KTZ, ketoconazole]", "values": [{"measurement": "Short term stability, Measured", "setting": "[3]; nominal 10 ng/ml", "value": "9.97 ± 0.23", "unit": "ng/mL"}, {"measurement": "Short term stability, RE", "setting": "[3]; nominal 10 ng/ml", "value": "−0.30", "unit": "%"}, {"measurement": "Short term stability, Measured", "setting": "[3]; nominal 40 ng/ml", "value": "42.23 ± 0.76", "unit": "ng/mL"}, {"measurement": "Short term stability, Measured", "setting": "[3]; nominal 250 ng/ml", "value": "264.51 ± 38.66", "unit": "ng/mL"}, {"measurement": "Short term stability, RE", "setting": "[3]; nominal 250 ng/ml", "value": 5.80, "unit": "%"}, {"measurement": "stability throughout the whole manipulation and storage processes", "setting": "[3]", "value": "stable"}, {"measurement": "Long term stability, Measured", "setting": "[3]; nominal 10 ng/ml", "value": "9.55 ± 0.07", "unit": "ng/mL"}, {"measurement": "Long term stability, RE", "setting": "[3]; nominal 10 ng/ml", "value": "−4.50", "unit": "%"}, {"measurement": "Long term stability, Measured", "setting": "[3]; nominal 40 ng/ml", "value": "40.04 ± 0.57", "unit": "ng/mL"}, {"measurement": "Long term stability, RE", "setting": "[3]; nominal 40 ng/ml", "value": 0.10, "unit": "%"}, {"measurement": "Long term stability, Measured", "setting": "[3]; nominal 250 ng/ml", "value": "259.01 ± 37.39", "unit": "ng/mL"}, {"measurement": "Long term stability, RE", "setting": "[3]; nominal 250 ng/ml", "value": 3.64, "unit": "%"}, {"measurement": "Three freeze−thaw cycles, Measured", "setting": "[3]; nominal 10 ng/ml", "value": "9.57 ± 0.23", "unit": "ng/mL"}, {"measurement": "Three freeze−thaw cycles, RE", "setting": "[3]; nominal 10 ng/ml", "value": "−4.30", "unit": "%"}, {"measurement": "Three freeze−thaw cycles, Measured", "setting": "[3]; nominal 40 ng/ml", "value": "39.46 ± 0.44", "unit": "ng/mL"}, {"measurement": "Three freeze−thaw cycles, RE", "setting": "[3]; nominal 40 ng/ml", "value": "−1.35", "unit": "%"}, {"measurement": "Three freeze−thaw cycles, Measured", "setting": "[3]; nominal 250 ng/ml", "value": "254.65 ± 38.96", "unit": "ng/mL"}, {"measurement": "Three freeze−thaw cycles, RE", "setting": "[3]; nominal 250 ng/ml", "value": 1.86, "unit": "%"}, {"measurement": "AUC(0-t)", "setting": "[4]; po, 20 mg/kg", "value": 4730, "unit": "ng·h/mL"}, {"measurement": "Cmax", "setting": "[4]; po, 20 mg/kg", "value": 2050, "unit": "ng/mL"}, {"measurement": "MRT last", "setting": "[4]; po, 20 mg/kg", "value": "1.86 ± 0.193", "unit": "h"}, {"measurement": "Tmax", "setting": "[4]; po, 20 mg/kg", "value": "0.514 ± 0.399", "unit": "h"}, {"measurement": "toxicity (physiological aspects, data not shown)", "setting": "rats", "value": "no obvious toxicity"}, {"measurement": "IC50", "setting": "CYP3A4 [7]", "value": 618, "unit": "nM"}]}
